# Active and inactive are the calls of the source. Non-standard residues stand in square brackets, D forms with d. Residues, ends and D or L forms follow the SMILES beside them. ξ: configuration not given here. ξLac(3-iPr) = CC(C)CC(O)C(=O)O; NMeV = CN[CH](C(=O)O)C(C)C; NMeA = CN[CH](C)C(=O)O; βAla = NCCC(=O)O
# Key:
# [1] = molecular target: 72 kDa type IV collagenase (Homo sapiens, UniProt P08253); test: Dose Response validation of uHTS RPN11 inhibitor hits using a MMP-2 Fluorescence assay.; format: functional
# 72 kDa type IV collagenase, sequence (P08253 whole entry): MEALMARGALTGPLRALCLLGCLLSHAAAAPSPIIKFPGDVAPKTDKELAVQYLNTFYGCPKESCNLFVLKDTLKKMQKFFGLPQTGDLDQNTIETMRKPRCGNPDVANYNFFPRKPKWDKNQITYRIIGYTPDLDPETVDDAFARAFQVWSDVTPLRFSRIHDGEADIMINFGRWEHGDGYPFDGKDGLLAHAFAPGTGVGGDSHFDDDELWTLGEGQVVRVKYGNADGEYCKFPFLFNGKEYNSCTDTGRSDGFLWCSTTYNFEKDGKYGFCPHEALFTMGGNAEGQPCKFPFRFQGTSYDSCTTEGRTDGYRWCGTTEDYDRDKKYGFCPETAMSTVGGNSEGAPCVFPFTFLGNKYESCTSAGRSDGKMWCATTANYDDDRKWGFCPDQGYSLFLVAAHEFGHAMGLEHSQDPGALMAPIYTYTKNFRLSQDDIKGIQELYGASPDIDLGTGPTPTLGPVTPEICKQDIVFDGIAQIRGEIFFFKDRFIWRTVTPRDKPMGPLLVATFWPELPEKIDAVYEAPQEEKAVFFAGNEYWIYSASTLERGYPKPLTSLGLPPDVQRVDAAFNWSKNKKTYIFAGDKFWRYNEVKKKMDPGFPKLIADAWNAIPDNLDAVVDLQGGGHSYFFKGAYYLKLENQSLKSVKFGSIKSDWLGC
# [2] = molecular target: Prothrombin (Bos taurus, UniProt P00735); test: thrombin inhibition, dose response, biochemical, fluorescence polarization, uHTS hits (AID 602369); format: functional
# [3] = molecular target: 26S proteasome non-ATPase regulatory subunit 14 (Homo sapiens, UniProt O00487); test: inhibition of proteasome subunit RPN11 – biochemical, fluorescence polarization, uHTS hits, confirmation (AID 602368); format: functional
# 26S proteasome non-ATPase regulatory subunit 14, sequence (O00487 whole entry): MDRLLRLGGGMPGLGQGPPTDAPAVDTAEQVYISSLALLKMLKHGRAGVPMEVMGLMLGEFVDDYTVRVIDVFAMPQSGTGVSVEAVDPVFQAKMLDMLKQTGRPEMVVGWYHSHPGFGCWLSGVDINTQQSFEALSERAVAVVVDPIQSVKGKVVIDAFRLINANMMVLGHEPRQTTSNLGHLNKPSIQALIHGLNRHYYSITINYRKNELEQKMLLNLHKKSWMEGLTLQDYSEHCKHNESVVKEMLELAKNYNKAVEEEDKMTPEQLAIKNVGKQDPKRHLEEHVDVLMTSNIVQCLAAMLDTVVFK
# [4] = molecular target: T1, High affinity choline transporter 1 (Homo sapiens, UniProt Q9GZV3); test: CHT inhibitors, dose response, cell-based, 5-point CRC, membrane potential dye (AID 504840); format: functional
# T1 sequence (Q9GZV3 whole entry): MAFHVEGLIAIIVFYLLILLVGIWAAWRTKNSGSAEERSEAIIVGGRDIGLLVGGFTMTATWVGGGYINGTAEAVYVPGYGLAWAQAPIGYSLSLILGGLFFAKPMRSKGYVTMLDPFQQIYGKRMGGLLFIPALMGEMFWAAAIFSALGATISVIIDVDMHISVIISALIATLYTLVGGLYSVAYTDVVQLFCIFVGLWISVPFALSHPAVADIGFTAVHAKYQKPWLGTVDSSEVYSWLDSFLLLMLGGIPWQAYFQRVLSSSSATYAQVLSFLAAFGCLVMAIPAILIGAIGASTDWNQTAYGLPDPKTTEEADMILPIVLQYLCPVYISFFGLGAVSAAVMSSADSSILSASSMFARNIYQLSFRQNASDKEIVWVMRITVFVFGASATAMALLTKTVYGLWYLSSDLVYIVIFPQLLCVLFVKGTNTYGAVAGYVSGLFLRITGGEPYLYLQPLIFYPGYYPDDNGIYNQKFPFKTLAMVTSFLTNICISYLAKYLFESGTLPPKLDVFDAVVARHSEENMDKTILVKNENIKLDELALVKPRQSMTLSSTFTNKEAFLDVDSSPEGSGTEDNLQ
# [5] = molecular target: T2, Rac GTPase-activating protein 1 (Homo sapiens, UniProt Q9H0H5); test: MgcRacGAP GTPase-activating activity inhibitors, confirmation, biochemical, ADP Hunter fluorescence, primary and confirmatory (AID 624330); format: functional
# T2 sequence (Q9H0H5 whole entry): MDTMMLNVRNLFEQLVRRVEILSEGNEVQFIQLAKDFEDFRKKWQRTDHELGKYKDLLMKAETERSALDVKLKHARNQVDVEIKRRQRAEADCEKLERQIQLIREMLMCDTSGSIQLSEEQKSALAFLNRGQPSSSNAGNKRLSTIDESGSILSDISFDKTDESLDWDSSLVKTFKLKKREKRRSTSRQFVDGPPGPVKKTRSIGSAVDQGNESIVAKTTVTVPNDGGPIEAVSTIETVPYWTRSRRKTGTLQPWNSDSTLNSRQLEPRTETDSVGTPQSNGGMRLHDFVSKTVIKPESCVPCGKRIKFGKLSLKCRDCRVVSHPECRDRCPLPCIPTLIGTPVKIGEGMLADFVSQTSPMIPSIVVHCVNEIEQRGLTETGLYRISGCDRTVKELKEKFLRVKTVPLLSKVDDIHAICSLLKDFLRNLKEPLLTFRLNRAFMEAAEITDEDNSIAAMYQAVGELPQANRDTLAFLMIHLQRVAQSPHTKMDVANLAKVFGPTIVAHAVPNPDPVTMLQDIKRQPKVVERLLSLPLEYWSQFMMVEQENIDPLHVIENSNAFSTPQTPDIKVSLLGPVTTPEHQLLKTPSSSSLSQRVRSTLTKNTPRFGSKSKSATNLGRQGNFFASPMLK
# [6] = molecular target: T3, Mannose-6-phosphate isomerase (Homo sapiens, UniProt P34949); test: human PMI inhibitors, high substrate, primary screen, biochemical, fluorescence intensity, high mannose 6-phosphate (AID 1220)
# T3 sequence (P34949 whole entry): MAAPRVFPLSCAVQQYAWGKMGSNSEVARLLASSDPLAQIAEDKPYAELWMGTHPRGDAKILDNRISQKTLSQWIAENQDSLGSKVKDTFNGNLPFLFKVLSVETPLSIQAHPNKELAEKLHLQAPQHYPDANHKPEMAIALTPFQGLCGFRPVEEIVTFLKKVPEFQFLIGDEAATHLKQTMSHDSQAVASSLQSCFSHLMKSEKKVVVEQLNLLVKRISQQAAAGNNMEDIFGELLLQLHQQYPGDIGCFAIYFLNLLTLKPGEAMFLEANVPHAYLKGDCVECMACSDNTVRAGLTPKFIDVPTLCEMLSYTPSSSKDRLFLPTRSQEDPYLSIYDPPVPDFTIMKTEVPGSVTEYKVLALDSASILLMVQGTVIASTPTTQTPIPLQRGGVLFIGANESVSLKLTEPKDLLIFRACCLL
# [7] = tested on: Escherichia coli; test: microbe, parasite or virus in culture
# [8] = tested on: Escherichia coli; test: microbe, parasite or virus in culture; remark: listed apart in the source
# [9] = HepG2 cell cytotoxicity, dose response, cytotoxicity control for Shn3 inhibitor project, CellTiter-Glo, cherry-picked (AID 624134); format: functional, cell-based
# [10] = Shn3 3'UTR reporter inhibitors, dose response, cell-based, Clone20 osteoblasts, firefly luciferase, cherry-picked (AID 624132); format: functional;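 note: firefly luciferase luminescence from reporter carrying the Shn3 3'UTR in osteoblasts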
# [11] = control 3'UTR Renilla luciferase suppression, dose response, counter-screen for Shn3 inhibitor project, cell-based, Clone20-Shn3RL, cherry-picked (AID 624133); format: functional
# [12] = molecular target: Induced myeloid leukemia cell differentiation protein Mcl-1 (Homo sapiens, UniProt Q07820); format: functional
# Induced myeloid leukemia cell differentiation protein Mcl-1, sequence (Q07820 whole entry): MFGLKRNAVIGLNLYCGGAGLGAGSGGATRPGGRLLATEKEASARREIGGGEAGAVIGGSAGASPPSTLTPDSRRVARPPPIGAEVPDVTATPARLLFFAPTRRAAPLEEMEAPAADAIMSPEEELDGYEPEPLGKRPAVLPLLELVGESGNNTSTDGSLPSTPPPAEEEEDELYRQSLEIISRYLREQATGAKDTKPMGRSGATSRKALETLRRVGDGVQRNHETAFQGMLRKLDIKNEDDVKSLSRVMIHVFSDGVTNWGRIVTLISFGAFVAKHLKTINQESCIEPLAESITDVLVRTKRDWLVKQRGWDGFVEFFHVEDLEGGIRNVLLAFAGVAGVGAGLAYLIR
# [13] = tested on: Vero; test: cells; format: functional, cell-based; settings: Chlorocebus sabaeus
# [14] = tested on: Vero; test: cells; format: functional; settings: Chlorocebus sabaeus
# [15] = molecular target: T4, Hexokinase (Trypanosoma brucei, UniProt Q38C41); test: Confirmation assay for inhibitors of Trypanosoma brucei hexokinase 1-Analogue-first series. [Related pubchem assays (depositor defined):AID1430, AID1632, AID2516, AID2560, AID2579, AID2600, AID449725, AID492951]; format: functional
# T4 sequence (Q38C41 whole entry): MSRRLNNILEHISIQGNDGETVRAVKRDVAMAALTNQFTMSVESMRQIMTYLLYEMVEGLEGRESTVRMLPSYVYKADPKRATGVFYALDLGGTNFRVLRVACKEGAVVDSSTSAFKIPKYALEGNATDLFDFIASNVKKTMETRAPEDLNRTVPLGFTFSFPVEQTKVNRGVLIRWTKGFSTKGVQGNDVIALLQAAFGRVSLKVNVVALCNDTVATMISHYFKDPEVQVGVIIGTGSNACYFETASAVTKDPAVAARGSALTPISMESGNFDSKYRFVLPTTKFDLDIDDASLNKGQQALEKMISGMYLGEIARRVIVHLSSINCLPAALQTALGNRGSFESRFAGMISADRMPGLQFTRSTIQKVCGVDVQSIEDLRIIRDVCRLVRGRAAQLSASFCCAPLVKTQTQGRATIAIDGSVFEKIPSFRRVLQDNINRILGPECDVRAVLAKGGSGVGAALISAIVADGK
# [16] = tested on: INS1; test: inhibitors of cytokine-induced nitrite release, dose response, cell-based, Griess absorbance, INS-1E, dry powder (AID 488866); format: functional; settings: Rattus norvegicus
# [17] = molecular target: Mu-type opioid receptor (Homo sapiens, UniProt P35372); test: Counterscreen for agonists of heterodimerization of the mu 1 (OPRM1) and delta 1 (OPRD1) opioid receptors: Luminescence-based cell-based high throughput dose response assay to identify agonists of OPRM1 homodimerization.; format: functional;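 note: U2OS cells expressing OPRM1 and beta-arrestin as split beta-galactosidase partners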
# Mu-type opioid receptor, sequence (P35372 whole entry): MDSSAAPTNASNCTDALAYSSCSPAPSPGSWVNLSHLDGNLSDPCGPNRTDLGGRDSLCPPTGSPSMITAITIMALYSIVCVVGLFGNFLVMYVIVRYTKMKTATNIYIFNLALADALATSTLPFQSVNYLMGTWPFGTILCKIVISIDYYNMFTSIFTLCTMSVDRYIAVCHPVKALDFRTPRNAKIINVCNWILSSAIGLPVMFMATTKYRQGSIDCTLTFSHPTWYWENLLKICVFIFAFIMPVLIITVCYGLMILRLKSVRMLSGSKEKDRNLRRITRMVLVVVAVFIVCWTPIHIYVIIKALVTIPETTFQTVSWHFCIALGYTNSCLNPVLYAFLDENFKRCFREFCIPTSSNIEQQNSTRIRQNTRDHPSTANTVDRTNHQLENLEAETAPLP
# [18] = molecular target: 5-hydroxytryptamine receptor 5A (Homo sapiens, UniProt P47898); test: Counterscreen for agonists of OPRM1-OPRD1 heterodimerization: luminescence-based cell-based high throughput dose response assay to identify agonists of 5-hydroxytryptamine (serotonin) 5A receptor (HTR5A). [Related pubchem assays (depositor defined):AID504326, AID504355, AID504692, AID504904, AID504905]; format: functional
# 5-hydroxytryptamine receptor 5A, sequence (P47898 whole entry): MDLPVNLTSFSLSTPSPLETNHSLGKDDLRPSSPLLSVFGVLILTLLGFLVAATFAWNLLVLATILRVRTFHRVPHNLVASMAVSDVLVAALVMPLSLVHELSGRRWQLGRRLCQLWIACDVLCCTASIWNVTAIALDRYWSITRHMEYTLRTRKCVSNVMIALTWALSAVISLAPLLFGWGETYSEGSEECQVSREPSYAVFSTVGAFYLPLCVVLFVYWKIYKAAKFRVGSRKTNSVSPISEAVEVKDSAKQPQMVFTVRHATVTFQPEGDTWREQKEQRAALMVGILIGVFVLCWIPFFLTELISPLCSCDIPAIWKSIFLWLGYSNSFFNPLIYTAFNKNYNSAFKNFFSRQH
# [19] = molecular target: Delta-type opioid receptor (Homo sapiens, UniProt P41143); test: Counterscreen for agonists of heterodimerization of the mu 1 (OPRM1) and delta 1 (OPRD1) opioid receptors: Luminescence-based cell-based high throughput dose response assay to identify agonists of OPRD1 homodimerization. [Related pubchem assays (depositor defined):AID504326, AID504355, AID504692, AID504904, AID504905]; format: functional
# Delta-type opioid receptor, sequence (P41143 whole entry): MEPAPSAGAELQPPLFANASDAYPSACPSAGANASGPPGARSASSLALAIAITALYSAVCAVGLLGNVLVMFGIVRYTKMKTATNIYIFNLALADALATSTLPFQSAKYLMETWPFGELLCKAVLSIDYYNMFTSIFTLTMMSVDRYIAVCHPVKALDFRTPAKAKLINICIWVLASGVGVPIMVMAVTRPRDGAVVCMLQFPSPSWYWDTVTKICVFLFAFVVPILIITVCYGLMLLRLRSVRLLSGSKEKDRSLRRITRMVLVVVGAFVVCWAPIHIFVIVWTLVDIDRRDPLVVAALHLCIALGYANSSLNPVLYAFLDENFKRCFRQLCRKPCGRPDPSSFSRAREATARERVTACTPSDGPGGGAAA
# [20] = molecular target: T5, DNA repair protein RAD52 homolog (Homo sapiens, UniProt P43351); format: functional, biochemical
# T5 sequence (P43351 whole entry): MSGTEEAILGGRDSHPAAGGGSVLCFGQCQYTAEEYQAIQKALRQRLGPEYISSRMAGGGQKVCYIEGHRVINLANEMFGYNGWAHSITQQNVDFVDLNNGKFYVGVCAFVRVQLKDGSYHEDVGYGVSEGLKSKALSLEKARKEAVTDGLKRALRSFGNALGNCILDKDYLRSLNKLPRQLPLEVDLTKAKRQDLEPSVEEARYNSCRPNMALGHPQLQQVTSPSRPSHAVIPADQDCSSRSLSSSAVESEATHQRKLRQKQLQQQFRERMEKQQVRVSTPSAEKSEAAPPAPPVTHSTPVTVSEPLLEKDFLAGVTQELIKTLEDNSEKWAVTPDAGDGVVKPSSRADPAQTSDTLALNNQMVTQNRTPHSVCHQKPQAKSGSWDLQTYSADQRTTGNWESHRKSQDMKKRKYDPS
# [21] = molecular target: Cytochrome P450 3A4 (Homo sapiens, UniProt P08684); settings: Potency;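 note: confirmatory qHTS run detecting inhibitors and substrates of CYP3A4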
# Cytochrome P450 3A4, sequence (P08684 whole entry): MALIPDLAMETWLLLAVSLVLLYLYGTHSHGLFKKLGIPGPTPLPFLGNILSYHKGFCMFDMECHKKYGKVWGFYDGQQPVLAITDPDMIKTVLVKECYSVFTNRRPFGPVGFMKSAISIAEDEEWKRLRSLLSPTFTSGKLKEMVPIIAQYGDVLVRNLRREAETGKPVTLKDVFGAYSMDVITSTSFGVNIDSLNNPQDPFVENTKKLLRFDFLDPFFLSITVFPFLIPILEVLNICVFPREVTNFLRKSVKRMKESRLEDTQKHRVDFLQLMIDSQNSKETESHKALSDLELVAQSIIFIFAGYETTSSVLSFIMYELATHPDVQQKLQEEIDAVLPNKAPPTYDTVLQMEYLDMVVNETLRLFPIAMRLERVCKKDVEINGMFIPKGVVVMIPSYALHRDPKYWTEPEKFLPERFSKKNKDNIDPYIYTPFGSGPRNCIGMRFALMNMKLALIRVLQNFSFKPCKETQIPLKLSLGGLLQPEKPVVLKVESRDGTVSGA
smiles,measurement,setting,value
Cc1sc2nc(CSc3nnc(Cc4cccs4)n3C3CCCCC3)[nH]c(=O)c2c1C,IC50,[1],> 100 µM (inactive)
same,IC50,[2],21.5 µM (active)
same,IC50,[3],15.5 µM (active)
COc1cccc(CNc2ccc(N3CCCCC3)cc2)c1OC,IC50,[4],11.5 µM (active)
same,IC50,[5],5.96 µM (active)
same,IC50,[6],> 50 µM (not active)
O=C(Nc1cccnc1)c1cccc(-c2cc3ccccc3oc2=O)c1,IC50,[1],> 100 µM (inactive)
same,IC50,[2],53.8 µM (active)
same,IC50,[3],9.88 µM (active)
CCOc1cccc2sc(N(CCCN(C)C)C(=O)c3ccc(S(=O)(=O)N4CCCCCC4)cc3)nc12,AC50,[7],> 380 µM (inactive)
same,AC50,[8],19.6 µM (active)
Cc1ccc(-n2nnnc2-c2cnoc2-c2cccc(F)c2)cc1,AC50,[7],126 µM (active)
same,AC50,[8],24.5 µM (active)
CCN(CC)S(=O)(=O)c1cc(NC(=O)C2CCN(c3ncnc4sc(C)c(C)c34)CC2)ccc1Cl,AC50,[9],7.1 µM (active)
same,AC50,[10],5.08 µM (active)
same,AC50,[11],10.6 µM (active)
Cc1ccc(-c2nnc(N3CC(C)OC(C)C3)c3ccccc23)cc1 (stereo unspecified),IC50,[4],17.4 µM (active)
CCN=c1ccc(Br)cc(C(=O)/C=C/c2ccc(Cl)cc2Cl)c1O,IC50,[12],3.71 µM (active)
same,IC50,[13],11.6 µM (active)
same,CC50,[14],11.1 µM (active)
Cc1ccc(C(=O)COC(=O)c2cc(O)nc3ccccc23)cc1C,IC50,[1],> 100 µM (inactive)
same,IC50,[2],> 100 µM (inactive)
same,IC50,[3],22.3 µM (active)
COc1ccccc1C1N(c2ccc(Cl)cc2)C(=O)C2CCCN21 (stereo unspecified),IC50,[13],> 25 µM (active)
CCN=C(S)NCCN1CCOCC1,AC50,[8],24.7 µM (active)
O=c1c2ccccc2[s+]([O-])n1-c1cccc(F)c1 (stereo unspecified),IC50,[15],> 25 µM (inactive)
COc1ccc(C(=O)Nc2cc(F)ccc2C(=O)O)cc1,IC50,[15],24.8 µM (active)
COc1ccc2sn(-c3ccccc3)c(=O)c2c1,IC50,[15],3.22 µM (active)
C[C@@H]1CN([C@@H](C)CO)C(=O)c2cccc(NC(=O)Nc3cccc4ccccc34)c2O[C@H]1CN(C)S(=O)(=O)c1ccc(-c2ccccc2)cc1,AC50,[16],> 195 µM (inactive)
COc1ccc(S(=O)(=O)N(C)C[C@@H]2Oc3c(NC(=O)Nc4cccc(C(F)(F)F)c4)cccc3C(=O)N([C@@H](C)CO)C[C@H]2C)cc1,AC50,[16],134 µM (active)
O=C1CCCC2=C1CC(C(=O)OCc1ccccc1)C(=O)N2Cc1ccccc1 (stereo unspecified),AC50,[7],13.8 µM (active)
CC(=O)C1CCC2C3CC=C4CC(SC(=N)N)CCC4(C)C3CCC12C (stereo unspecified),EC50,[17],> 92.4 µM (inactive)
same,EC50,[18],> 92.4 µM (inactive)
same,EC50,[19],> 10.3 µM (inactive)
same,AC50,[20],7.48 µM (active)
CCC(C)C1NC(=O)C2CCCN2C(=O)C(CC(C)C)OC(=O)CCNC(=O)C(C)N(C)C(=O)C(C(C)C)N(C)C1=O (stereo unspecified) (cyclo([ξLac(3-iPr)]PI[NMeV][NMeA][βAla]); configuration not given here),IC50,[13],8.21 µM (active)
same,CC50,[14],> 25 µM (active)
O=C(/C=C/c1ccc(O)c(O)c1)OCCc1ccccc1 [CAFFEIC ACID PHENETHYL ESTER],AC50,[9],> 70 µM (inactive)
same,AC50,[21],31.6 µM (inconclusive)
same,AC50,[10],0.877 µM (active)
same,AC50,[11],1.11 µM (active)
